Where two headings read alike, the source gives them in different places.
What was measured:
[1] = molecular target: mu opioid receptor; assay: opioid receptor binding, mu ([3H]naloxone); design: species or system guinea pig (method, b1124); rat (Table 4 title)
[2] = phenylquinone writhing test (PQW), analgesic activity in mice; format: in vivo, male white mice (CFl); conditions: Mus musculus
[3] = molecular target: T1, kappa opioid receptor (Cavia porcellus, UniProt P41144); assay: opioid receptor binding, kappa ((-)-[3H]ethylketocycloazocine); design: species or system guinea pig (method, b1124); rat (Table 4 title)
T1 construct: Whole brains were homogenized (20 sec) in 10 vol (wt/vol) of ice-cold 0.34 M sucrose; tissue Charles River (animals); host or cells: guinea pig whole-brain membranes

[4] = mouse, in vivo; cited from earlier work
[5] = 0.5 nM [3H]naloxone, brain membranes, apparent Ki

T1 sequence (P41144 whole entry): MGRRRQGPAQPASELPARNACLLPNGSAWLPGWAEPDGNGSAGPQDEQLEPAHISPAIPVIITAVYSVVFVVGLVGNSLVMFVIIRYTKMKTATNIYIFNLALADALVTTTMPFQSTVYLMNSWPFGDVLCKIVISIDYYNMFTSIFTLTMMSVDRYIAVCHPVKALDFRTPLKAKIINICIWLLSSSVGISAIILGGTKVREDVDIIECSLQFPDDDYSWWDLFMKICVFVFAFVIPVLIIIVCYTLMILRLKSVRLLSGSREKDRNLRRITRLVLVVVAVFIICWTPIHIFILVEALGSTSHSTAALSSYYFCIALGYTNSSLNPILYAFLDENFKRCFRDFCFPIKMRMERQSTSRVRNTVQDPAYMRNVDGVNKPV

SMILES	Ki [1] [µM]	ED50 ([2]; po) [mg/kg]	ED50 ([2]; sc) [mg/kg]	Ki [1, 5] [µM]	Ki [3] [µM]	sedation in mice [4]
CN1CCCC[C@@H]1[C@@H](c1ccccc1)N(C)C(=O)Cc1ccc(Cl)c(Cl)c1 [Example 107]	0.253	30	13	–	–	–
CN1CCCC[C@H]1[C@@H](c1ccccc1)N(C)C(=O)Cc1ccc(Cl)c(Cl)c1 [Example 109]	3.86	> 81	> 81	–	–	–
CN1CCCC[C@H]1[C@H](c1ccccc1)N(C)C(=O)COc1ccc(Cl)c(Cl)c1 [Example 110]	–	0.89	0.078	0.008	–	–
CN1CCCC[C@@H]1[C@@H](c1ccccc1)N(C)C(=O)COc1ccc(Cl)c(Cl)c1 [Example 111]	0.195	19	1.3	–	–	–
CN1CCCC[C@@H]1[C@H](c1ccccc1)N(C)C(=O)COc1ccc(Cl)c(Cl)c1 [Example 112]	4.62	> 81	12	–	–	–
CN1CCCC[C@H]1[C@@H](c1ccccc1)N(C)C(=O)COc1ccc(Cl)c(Cl)c1 [Example 113]	> 10	> 81	67	–	–	–
CN1CCCC[C@H]1[C@H](c1ccccc1)N(C)C(=O)Cc1cccc2occc12 [Example 114]	0.25	8.1	0.57	–	–	–
CN1CCCC[C@H]1[C@H](c1ccc(F)cc1)N(C)C(=O)Cc1ccc(Cl)c(Cl)c1 [Example 118]	1.06	19	1.7	–	–	–
COc1cccc([C@@H]([C@@H]2CCCCN2C)N(C)C(=O)Cc2ccc(Cl)c(Cl)c2)c1 [Example 120]	0.633	19	1.6	–	–	–
CN1CCCC[C@H]1[C@H](c1cccc(O)c1)N(C)C(=O)Cc1ccc(Cl)c(Cl)c1 [Example 122]	0.209	47	36	–	–	–
CN1CCCC[C@H]1[C@H](c1ccc(F)cc1)N(C)C(=O)COc1ccc(Cl)c(Cl)c1 [Example 136]	–	1.7	0.24	0.054	–	–
COc1cccc([C@@H]([C@@H]2CCCCN2C)N(C)C(=O)COc2ccc(Cl)c(Cl)c2)c1 [Example 140]	0.104	5.2	0.29	–	–	–
CN1CCCC[C@H]1[C@H](c1cccc(O)c1)N(C)C(=O)COc1ccc(Cl)c(Cl)c1 [Example 144]	–	16	4.2	0.027	–	–
CN(C(=O)Cc1ccc(Cl)c(Cl)c1)[C@@H](c1ccccc1)[C@@H]1CCCCN1CC1CC1 [Example 179]	–	10	> 81	0.604	0.397	–
C=CCN1CCCC[C@H]1[C@H](c1ccccc1)N(C)C(=O)Cc1ccc(Cl)c(Cl)c1 [Example 180]	0.53	24	> 81	–	–	–
CN1CC[C@]23c4c5ccc(O)c4O[C@H]2[C@@H](O)C=C[C@H]3[C@H]1C5 [Morphine]	–	–	–	–	–	do not produce sedation

— US5254569A, “(Amidomethyl)nitrogen heterocyclic analgesics” (The Du Pont Merck Pharmaceutical Company, priority 1991, dated 1993)
